Values belong to the sequence of their own block, whether it stands above or below them. Bridge positions count the residues as written; N and C are the ends. Ends that are not written are not given here.
What was measured:
Parameters in all cases: species or system HIV
[1] = system: mAb 257D binding to SF162 gp120 protein; test: Competition peptide ELISA, mAb 257D
[2] = system: mAb 447-52D binding to SF162 gp120 protein; test: Competition peptide ELISA, mAb 447-52D; conditions: for competition of peptide for binding of mAb 447-52D to gp120 protein: peptide 4-fold serial dilutions beginning at 20 ug/mL
[3] = system: mAb 240D binding to MN gp41 protein; test: Competition peptide ELISA, mAb 240D; conditions: peptide 4-fold serial dilutions beginning at 20 ug/mL
[4] = system: mAb F240 binding to MN gp41 protein; test: Competition peptide ELISA, mAb F240; conditions: peptide 4-fold serial dilutions beginning at 20 ug/mL
[5] = competition ELISA, SF162 gp120 coated
[6] = competition ELISA, SF162 gp120 coated, unpaired t test, three replicate experiments

Sequence: RKSIHIGPGRAFY [wild-type V3 peptide]
competition of peptide for binding of mAb 257D to gp120 protein ([1]; peptide 4-fold serial dilutions beginning at 20 ug/mL): competed for binding
competition of peptide for binding of mAb 447-52D to gp120 protein [2]: competed for binding

Sequence: RTSIHIGPGRAFY [K305T]
IC50 of peptide compared with wild-type V3 peptide, mAb 447-52D [2, 6]: did not yield IC50 values that were significantly different from the wild-type peptide

Sequence: EKSIHIGPGRAFY [R304E]
IC50 of peptide compared with wild-type V3 peptide, mAb 257D [1, 6]: did not yield IC50 values that were significantly different from the wild-type peptide

Now from value to sequence:

competition of peptide for binding of mAb 240D to gp41 protein [3]: no longer competes for binding
competition of peptide for binding of mAb F240 to gp41 protein [4]: no longer competes for binding
Sequence: LLGIWGDSGKLICTTNVP [C598D]

fold increase in IC50 versus wild-type V3 peptide, mAb 257D [1, 5]: 5 fold
fold increase in IC50 versus wild-type V3 peptide, mAb 447-52D [2, 5]: 72 fold
Sequence: RKSIHIGPGWAFY [R315W]

competition of peptide for binding of mAb 240D to gp41 protein [3]: competed for binding
competition of peptide for binding of mAb F240 to gp41 protein [4]: competed for binding
Sequence: LLGIWGCSGKLICTTNVP (disulfide 7-13 (inferred)) [wild-type gp41 peptide]

competition of peptide for binding of mAb 447-52D to gp120 protein [2]: improved binding above wild-type levels
Sequence: RKSIHIGPGRATY [F317T]
